# Source: US9295673B2, “Combination of mTOR inhibitors and P13-kinase inhibitors, and uses thereof” (Intellikine LLC, priority 2011, dated 2016)
# Like-named read-outs stand apart in the source and are kept apart here.
# Key:
# PI3K β = PI3K β (Homo sapiens, UniProt P42338); assay: PI 3-Kinase (human) HTRF assay, PI3K β
# Experimental: (§1) An exemplary system is PI 3-Kinase (human) HTRF™ Assay from Upstate. […] Briefly, the assay is a time resolved FRET assay that indirectly measures PIP3 product formed by the activity of a PI3-K. The kinase reaction is performed in a microtitre plate (e.g., a 384 well microtitre plate). The total reaction volume is approximately 20 ul per well. In the first step, each well receives 2 ul of test compound in 20% dimethylsulphoxide resulting in a 2% DMSO final concentration. […] The plate is sealed and incubated for 15 minutes at room temperature. […] The plate is sealed and incubated for 1 hour at room temperature. The reaction is stopped by adding 5 ul of Stop Solution per well and then 5 ul of Detection Mix is added per well. The plate is sealed, incubated for 1 hour at room temperature, and then read on an appropriate plate reader. Data is analyzed and IC50s are generated using GraphPad Prism 5.
# PI3K α = PI3K α (Homo sapiens, UniProt P42336); assay: PI 3-Kinase (human) HTRF assay, PI3K α
# Experimental: as §1
# PI3K δ = PI3K δ (Homo sapiens, UniProt O00329); assay: PI 3-Kinase (human) HTRF assay, PI3K δ
# Chain of PI3K δ (O00329 whole entry): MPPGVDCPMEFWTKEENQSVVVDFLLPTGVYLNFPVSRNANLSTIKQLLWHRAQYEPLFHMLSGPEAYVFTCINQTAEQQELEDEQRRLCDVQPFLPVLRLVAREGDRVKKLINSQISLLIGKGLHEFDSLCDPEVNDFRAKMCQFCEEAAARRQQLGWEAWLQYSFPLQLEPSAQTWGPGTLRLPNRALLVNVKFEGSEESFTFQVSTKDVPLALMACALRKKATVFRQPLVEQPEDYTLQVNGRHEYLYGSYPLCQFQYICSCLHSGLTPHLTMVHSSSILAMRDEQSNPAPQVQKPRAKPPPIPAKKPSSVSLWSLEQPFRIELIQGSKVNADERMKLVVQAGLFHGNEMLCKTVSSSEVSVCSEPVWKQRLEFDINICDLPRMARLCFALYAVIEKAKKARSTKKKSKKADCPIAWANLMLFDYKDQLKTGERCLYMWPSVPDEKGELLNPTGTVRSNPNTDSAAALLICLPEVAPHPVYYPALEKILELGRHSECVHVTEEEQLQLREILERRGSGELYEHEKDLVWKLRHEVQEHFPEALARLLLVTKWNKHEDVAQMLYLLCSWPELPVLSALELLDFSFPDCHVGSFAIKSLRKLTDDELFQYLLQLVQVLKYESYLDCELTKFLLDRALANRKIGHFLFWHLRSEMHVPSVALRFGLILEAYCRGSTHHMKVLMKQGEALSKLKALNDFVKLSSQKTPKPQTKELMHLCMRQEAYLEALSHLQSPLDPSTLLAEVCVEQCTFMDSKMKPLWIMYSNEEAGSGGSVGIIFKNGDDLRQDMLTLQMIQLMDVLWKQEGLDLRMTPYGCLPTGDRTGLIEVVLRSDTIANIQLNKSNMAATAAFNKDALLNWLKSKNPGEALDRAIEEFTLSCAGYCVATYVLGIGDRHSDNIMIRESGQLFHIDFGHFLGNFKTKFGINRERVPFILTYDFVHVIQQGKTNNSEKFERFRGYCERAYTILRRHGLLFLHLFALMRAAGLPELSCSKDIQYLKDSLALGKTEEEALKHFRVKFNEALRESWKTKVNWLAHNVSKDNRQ
# Chain of PI3K δ (P27986 whole entry partner): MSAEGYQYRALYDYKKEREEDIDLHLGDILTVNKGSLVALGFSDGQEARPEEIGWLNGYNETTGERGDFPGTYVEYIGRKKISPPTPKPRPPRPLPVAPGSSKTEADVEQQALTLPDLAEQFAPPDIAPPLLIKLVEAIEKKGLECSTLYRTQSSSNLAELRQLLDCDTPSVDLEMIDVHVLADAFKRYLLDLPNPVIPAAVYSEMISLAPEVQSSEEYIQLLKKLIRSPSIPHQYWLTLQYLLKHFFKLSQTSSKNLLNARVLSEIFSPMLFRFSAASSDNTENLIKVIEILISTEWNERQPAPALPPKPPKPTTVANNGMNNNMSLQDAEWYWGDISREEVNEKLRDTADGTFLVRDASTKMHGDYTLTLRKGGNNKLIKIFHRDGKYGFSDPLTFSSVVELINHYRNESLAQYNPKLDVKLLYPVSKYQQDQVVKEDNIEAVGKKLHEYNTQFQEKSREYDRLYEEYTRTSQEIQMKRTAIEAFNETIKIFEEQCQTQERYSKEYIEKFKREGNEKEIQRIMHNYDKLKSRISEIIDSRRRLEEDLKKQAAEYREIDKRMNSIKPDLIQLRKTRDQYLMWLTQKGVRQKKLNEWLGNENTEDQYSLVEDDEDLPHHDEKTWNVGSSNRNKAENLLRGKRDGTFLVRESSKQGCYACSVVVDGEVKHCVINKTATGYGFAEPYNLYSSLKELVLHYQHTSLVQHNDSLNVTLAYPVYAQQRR
# Experimental: as §1
# mTOR = biological target: T1, mTOR (Homo sapiens, UniProt P42345); assay: mTOR kinase inhibition assay (radiometric or LanthaScreen TR-FRET); assay type: biochemical; details: read-out: mTORC IC50
# T1 construct: purchased Invitrogen
# Experimental: The compounds described herein can be tested against recombinant mTOR (Invitrogen) in an assay containing 50 mM HEPES, pH 7.5, 1 mM EGTA, 10 mM MgCl2, 2.5 mM, 0.01% Tween, 10 μM ATP (2.5 μCi of μ-32P-ATP), and 3 mg/mL BSA. Rat recombinant PHAS-1/4EBP1 (Calbiochem; 2 mg/mL) is used as a substrate. Reactions are terminated by spotting onto nitrocellulose, which is washed with 1M NaC1/1% phosphoric acid (approximately 6 times, 5-10 minutes each). Sheets are dried and the transferred radioactivity quantitated by phosphorimaging.
# For instance, one can use Invitrogen's LanthaScreen™ Kinase assay to test the inhibitors of mTOR disclosed herein. This assay is a time resolved FRET platform that measures the phosphorylation of GFP labeled 4EBP1 by mTOR kinase. The kinase reaction is performed in a white 384 well microtitre plate. The total reaction volume is 20 ul per well and the reaction buffer composition is 50 mM HEPES pH7.5, 0.01% Polysorbate 20, 1 mM EGTA, 10 mM MnCl2, and 2 mM DTT. In the first step, each well receives 2 ul of test compound in 20% dimethylsulphoxide resulting in a 2% DMSO final concentration. […] The plate is sealed and incubated for 1 hour at room temperature. […] The plate is sealed, incubated for 1 hour at room temperature, and then read on a plate reader set up for LanthaScreen™ TR-FRET. Data is analyzed and IC50s are generated using GraphPad Prism 5.
# PI3K γ = PI3K γ (Homo sapiens, UniProt P48736); assay: PI 3-Kinase (human) HTRF assay, PI3K γ
# Chain of PI3K γ (P48736 whole entry): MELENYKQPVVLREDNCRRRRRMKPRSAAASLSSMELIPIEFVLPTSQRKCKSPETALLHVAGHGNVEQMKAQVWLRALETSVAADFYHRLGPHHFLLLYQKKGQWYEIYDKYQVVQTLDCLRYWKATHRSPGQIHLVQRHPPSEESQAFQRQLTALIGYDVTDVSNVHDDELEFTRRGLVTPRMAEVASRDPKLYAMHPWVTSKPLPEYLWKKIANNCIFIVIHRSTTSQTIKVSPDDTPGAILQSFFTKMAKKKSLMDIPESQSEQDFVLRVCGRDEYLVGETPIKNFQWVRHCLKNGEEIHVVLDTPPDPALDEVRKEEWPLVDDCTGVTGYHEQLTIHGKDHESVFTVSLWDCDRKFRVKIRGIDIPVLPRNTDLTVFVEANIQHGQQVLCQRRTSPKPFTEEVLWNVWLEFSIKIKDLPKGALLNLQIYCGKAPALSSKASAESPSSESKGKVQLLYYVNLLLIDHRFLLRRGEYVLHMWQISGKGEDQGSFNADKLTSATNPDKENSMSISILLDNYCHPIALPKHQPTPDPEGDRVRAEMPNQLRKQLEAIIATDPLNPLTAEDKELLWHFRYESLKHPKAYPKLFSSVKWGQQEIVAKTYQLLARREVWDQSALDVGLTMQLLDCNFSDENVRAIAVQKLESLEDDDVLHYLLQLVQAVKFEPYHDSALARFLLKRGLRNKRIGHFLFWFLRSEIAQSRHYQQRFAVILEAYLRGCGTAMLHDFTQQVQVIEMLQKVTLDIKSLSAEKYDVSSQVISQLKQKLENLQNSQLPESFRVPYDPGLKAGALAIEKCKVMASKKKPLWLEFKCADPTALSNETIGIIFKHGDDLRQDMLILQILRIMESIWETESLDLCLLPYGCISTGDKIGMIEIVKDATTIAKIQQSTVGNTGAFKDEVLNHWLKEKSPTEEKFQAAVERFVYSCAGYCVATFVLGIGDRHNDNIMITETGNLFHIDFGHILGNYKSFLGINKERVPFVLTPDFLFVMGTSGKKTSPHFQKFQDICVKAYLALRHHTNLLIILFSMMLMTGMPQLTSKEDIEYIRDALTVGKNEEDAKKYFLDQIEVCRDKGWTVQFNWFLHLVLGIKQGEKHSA
# [1] = read-out: PI3K β IC50, in vitro
# [2] = read-out: PI3K α IC50, in vitro
# [3] = read-out: PI3K δ IC50, in vitro
# [4] = read-out: PI3K γ IC50, in vitro
# Chain of PI3K α (P42336 whole entry): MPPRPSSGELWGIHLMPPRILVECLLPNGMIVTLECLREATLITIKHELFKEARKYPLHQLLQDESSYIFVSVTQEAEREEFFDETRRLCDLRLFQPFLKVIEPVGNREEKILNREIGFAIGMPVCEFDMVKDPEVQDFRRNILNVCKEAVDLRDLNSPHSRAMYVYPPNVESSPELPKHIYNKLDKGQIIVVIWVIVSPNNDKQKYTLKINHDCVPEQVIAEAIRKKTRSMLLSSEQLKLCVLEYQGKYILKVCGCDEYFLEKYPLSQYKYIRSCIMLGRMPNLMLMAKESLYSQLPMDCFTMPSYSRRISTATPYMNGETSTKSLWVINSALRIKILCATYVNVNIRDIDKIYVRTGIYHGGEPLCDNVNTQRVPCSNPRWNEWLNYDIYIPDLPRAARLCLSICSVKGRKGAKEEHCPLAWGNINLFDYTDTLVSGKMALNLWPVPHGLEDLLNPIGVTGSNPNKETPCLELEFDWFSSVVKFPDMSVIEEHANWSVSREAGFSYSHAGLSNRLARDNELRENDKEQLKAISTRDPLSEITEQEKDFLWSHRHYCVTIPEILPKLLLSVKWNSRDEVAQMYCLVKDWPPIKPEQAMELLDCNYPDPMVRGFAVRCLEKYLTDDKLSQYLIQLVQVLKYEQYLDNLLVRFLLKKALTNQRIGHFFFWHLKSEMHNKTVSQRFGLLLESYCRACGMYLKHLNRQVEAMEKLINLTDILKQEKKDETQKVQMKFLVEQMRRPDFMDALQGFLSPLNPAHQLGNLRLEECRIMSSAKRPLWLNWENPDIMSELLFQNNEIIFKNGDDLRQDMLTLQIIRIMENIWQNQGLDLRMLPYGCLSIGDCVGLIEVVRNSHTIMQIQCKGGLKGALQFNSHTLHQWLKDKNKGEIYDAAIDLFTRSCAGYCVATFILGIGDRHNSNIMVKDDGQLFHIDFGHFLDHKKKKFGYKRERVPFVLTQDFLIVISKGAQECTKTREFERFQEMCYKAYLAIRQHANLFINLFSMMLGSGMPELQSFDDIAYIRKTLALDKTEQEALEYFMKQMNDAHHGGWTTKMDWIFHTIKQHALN
# Chain of PI3K α (P27986 whole entry partner): as the sequence (P27986 whole entry partner) above
# Chain of PI3K β (P42338 whole entry): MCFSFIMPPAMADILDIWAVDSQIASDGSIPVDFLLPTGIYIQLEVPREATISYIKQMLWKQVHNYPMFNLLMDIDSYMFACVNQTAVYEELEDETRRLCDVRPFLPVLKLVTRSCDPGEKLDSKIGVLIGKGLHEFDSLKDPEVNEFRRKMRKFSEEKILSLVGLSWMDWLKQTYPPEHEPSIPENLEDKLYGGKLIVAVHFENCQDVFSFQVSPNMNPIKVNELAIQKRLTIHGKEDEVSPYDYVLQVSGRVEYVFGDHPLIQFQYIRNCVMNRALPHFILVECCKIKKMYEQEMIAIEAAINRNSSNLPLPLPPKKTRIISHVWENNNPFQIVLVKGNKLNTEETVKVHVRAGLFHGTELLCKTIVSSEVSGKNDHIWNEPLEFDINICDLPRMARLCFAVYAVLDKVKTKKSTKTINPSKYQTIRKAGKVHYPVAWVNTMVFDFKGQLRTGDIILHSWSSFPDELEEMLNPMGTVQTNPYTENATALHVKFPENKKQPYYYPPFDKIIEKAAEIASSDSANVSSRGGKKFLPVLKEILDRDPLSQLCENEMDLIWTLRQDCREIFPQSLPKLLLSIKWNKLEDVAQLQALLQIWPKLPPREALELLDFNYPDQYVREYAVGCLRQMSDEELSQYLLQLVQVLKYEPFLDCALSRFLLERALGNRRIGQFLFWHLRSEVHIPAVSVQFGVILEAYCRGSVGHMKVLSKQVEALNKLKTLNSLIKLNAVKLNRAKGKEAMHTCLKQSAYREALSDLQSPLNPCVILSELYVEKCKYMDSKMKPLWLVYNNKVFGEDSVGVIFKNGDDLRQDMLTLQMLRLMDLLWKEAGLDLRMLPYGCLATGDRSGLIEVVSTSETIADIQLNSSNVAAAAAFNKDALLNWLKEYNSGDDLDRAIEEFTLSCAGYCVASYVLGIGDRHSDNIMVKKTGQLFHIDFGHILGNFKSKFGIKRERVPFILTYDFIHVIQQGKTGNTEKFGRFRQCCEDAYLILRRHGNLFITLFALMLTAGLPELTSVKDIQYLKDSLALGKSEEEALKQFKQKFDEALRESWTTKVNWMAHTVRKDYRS
# Chain of PI3K β (P27986 whole entry partner): as the sequence (P27986 whole entry partner) above
compound,measurement,setting,value
[2H]c1c(-c2ccc3ncc(C(=O)N4CCOCC4)n3c2)c([2H])c2nc(N)oc2c1[2H] [Compound 531],IC50,PI3K β; [1],< 10 µM
same,IC50,PI3K α; [2],< 0.1 µM
same,IC50,PI3K δ; [3],> 10 µM
O=C(c1cnc2ccc(-c3ccnc4[nH]ncc34)cn12)N1CCOCC1 [Compound 532],IC50,mTOR; in vitro,> 10 µM
same,IC50,PI3K α; [2],< 10 µM
CN1CC2CN(C(=O)c3cnc4ccc(-c5ccc6oc(N)nc6c5)cn34)CC2C1 (stereo not drawn) [Compound 533],IC50,mTOR; in vitro,> 10 µM
O=C(c1cnc2ccc(-c3cnc4cc[nH]c4c3)cn12)N1CCOCC1 [Compound 534],IC50,PI3K α; [2],< 10 µM
Cc1ncc(-c2ccc3ncc(C(=O)N4CCOCC4)n3c2)c2cc[nH]c12 [Compound 536],IC50,PI3K α; [2],< 10 µM
Cn1ncc2c(-c3ccc4ncc(C(=O)N5CCOCC5)n4c3)cncc21 [Compound 537],IC50,PI3K γ; [4],< 10 µM
same,IC50,PI3K α; [2],< 10 µM
Cc1ncc(-c2ccc3ncc(C(=O)N4C5CCC4COC5)n3c2)c2cn[nH]c12 [Compound 538],IC50,mTOR; in vitro,> 10 µM
same,IC50,PI3K δ; read-out: PI3K δ IC50,< 10 µM
O=C(c1cnc2ccc(-c3cncc4c3cnn4CCO)cn12)N1CCOCC1 [Compound 539],IC50,PI3K β; [1],> 10 µM
same,IC50,PI3K γ; [4],> 10 µM
same,IC50,PI3K α; [2],> 10 µM
same,IC50,PI3K δ; [3],> 10 µM
Cc1cc(-c2ccc3nc(N)oc3c2)cn2c(-c3ccncc3)nnc12 [Compound 543],IC50,PI3K β; [1],< 10 µM
same,IC50,PI3K γ; [4],> 10 µM
same,IC50,PI3K α; [2],> 10 µM
same,IC50,PI3K δ; [3],> 10 µM
Nc1nc2cc(-c3ccc4ncc(C(=O)NCCOCCO)n4c3)ccc2o1 [Compound 550],IC50,PI3K γ,< 1 µM
same,IC50,PI3K α,< 1 µM
CC1CN(C2CN(c3cnc4ccc(-c5ccc6oc(N)nc6c5)nc4n3)C2)CCO1 (stereo not drawn) [Compound 569],IC50,"PI3K β; read-out: PI3K β IC50, Table 4",> 10 µM
same,IC50,"PI3K γ; read-out: PI3K γ IC50, Table 4",< 10 µM
same,IC50,"PI3K α; read-out: PI3K α IC50, Table 4",< 1 µM
same,IC50,"PI3K δ; read-out: PI3K δ IC50, Table 4",> 10 µM
Nc1nc2cc(-c3ccc4ncc(N5CC(N6CC7CCC(C6)O7)C5)nc4n3)ccc2o1 [Compound 571],IC50,"PI3K β; read-out: PI3K β IC50, Table 4",> 10 µM
same,IC50,"PI3K γ; read-out: PI3K γ IC50, Table 4",< 10 µM
same,IC50,"PI3K α; read-out: PI3K α IC50, Table 4",< 1 µM
same,IC50,"PI3K δ; read-out: PI3K δ IC50, Table 4",> 10 µM
Nc1nc2cc(-c3ccc4ncc(N5C6CCC5COC6)cc4n3)ccc2o1 [Compound 574],IC50,"PI3K β; read-out: PI3K β IC50, Table 4",< 10 µM
same,IC50,"PI3K γ; read-out: PI3K γ IC50, Table 4",< 0.1 µM
same,IC50,"PI3K α; read-out: PI3K α IC50, Table 4",< 0.1 µM
same,IC50,PI3K δ; read-out: PI3K δ IC50,> 10 µM
Nc1nc2cc(-c3ccc4ncc(N5CCNC(=O)C5)nc4n3)ccc2o1 [Compound 580],IC50,PI3K β,< 1 µM
same,IC50,PI3K γ,< 0.1 µM
same,IC50,PI3K α,< 0.1 µM
C[C@@H]1CN(c2cnc3ccc(-c4ccc5oc(N)nc5c4)nc3c2)CCN1 [Compound 599],IC50,mTOR; Table 4,> 10 µM
same,IC50,"PI3K γ; read-out: PI3K γ IC50, Table 4",< 10 µM
same,IC50,PI3K δ; read-out: PI3K δ IC50,< 10 µM
C[C@@H]1COCCN1C1CN(c2cnc3ccc(-c4ccc5oc(N)nc5c4)nc3n2)C1 [Compound 600],IC50,"PI3K γ; read-out: PI3K γ IC50, Table 4",< 10 µM
same,IC50,"PI3K α; read-out: PI3K α IC50, Table 4",< 10 µM
Nc1nc2cc(-c3ccc4ncc(N5CC(N6C7CCC6COC7)C5)nc4n3)ccc2o1 [Compound 602],IC50,"PI3K β; read-out: PI3K β IC50, Table 4",> 10 µM
same,IC50,PI3K γ; read-out: PI3K γ IC50,> 10 µM
same,IC50,PI3K α; read-out: PI3K α IC50,< 10 µM
same,IC50,PI3K δ; read-out: PI3K δ IC50,> 10 µM
C[C@H]1CN(C2CN(c3cnc4ccc(-c5ccc6oc(N)nc6c5)nc4c3)C2)CCN1C [Compound 606],IC50,mTOR; Table 4,> 10 µM
same,IC50,PI3K α,< 0.1 µM
same,IC50,PI3K δ,< 1 µM
C[C@@H]1CN(C2CN(c3cnc4ccc(-c5ccc6oc(N)nc6c5)nc4c3)C2)CCN1 [Compound 607],IC50,"PI3K β; read-out: PI3K β IC50, Table 4",< 10 µM
same,IC50,mTOR; Table 4,> 10 µM
C[C@@H]1CN(C2CN(c3cnc4ccc(-c5ccc6oc(N)nc6c5)nc4c3)C2)CCN1C [Compound 608],IC50,"PI3K β; read-out: PI3K β IC50, Table 4",< 10 µM
same,IC50,mTOR; Table 4,> 10 µM
same,IC50,"PI3K γ; read-out: PI3K γ IC50, Table 4",< 10 µM
Nc1nc2cc(-c3ccc4ncc(N5CC6CCC(C5)O6)cc4n3)ccc2o1 [Compound 610],IC50,"PI3K β; read-out: PI3K β IC50, Table 4",> 10 µM
same,IC50,"PI3K γ; read-out: PI3K γ IC50, Table 4",< 0.1 µM
same,IC50,"PI3K α; read-out: PI3K α IC50, Table 4",< 0.1 µM
same,IC50,"PI3K δ; read-out: PI3K δ IC50, Table 4",> 10 µM
Nc1nc2cc(-c3ccc4ncc(N5CC(N6C7CCC6COC7)C5)cc4n3)ccc2o1 [Compound 618],IC50,"PI3K β; read-out: PI3K β IC50, Table 4",> 10 µM
same,IC50,"PI3K γ; read-out: PI3K γ IC50, Table 4",< 1 µM
same,IC50,"PI3K α; read-out: PI3K α IC50, Table 4",< 0.1 µM
same,IC50,PI3K δ; read-out: PI3K δ IC50,< 10 µM
Nc1nc2cc(-c3cnc4ccc(N5CCOCC5)nc4c3)ccc2o1 [Compound 624],IC50,"PI3K γ; read-out: PI3K γ IC50, Table 4",< 10 µM
same,IC50,"PI3K α; read-out: PI3K α IC50, Table 4",< 10 µM
CC(C)N1CCN(C2CN(c3cnc4ccc(-c5ccc6oc(N)nc6c5)nc4n3)C2)CC1 [Compound 628],IC50,"PI3K α; read-out: PI3K α IC50, Table 4",< 10 µM
CN1CCN(c2ccc3ncc(-c4ccc5oc(N)nc5c4)cc3n2)CC1 [Compound 631],IC50,"PI3K β; read-out: PI3K β IC50, Table 4",< 10 µM
same,IC50,"PI3K α; read-out: PI3K α IC50, Table 4",< 10 µM
Nc1nc2cc(-c3cnc4ccc(N5C6CCC5COC6)nc4c3)ccc2o1 [Compound 632],IC50,"PI3K β; read-out: PI3K β IC50, Table 4",> 10 µM
same,IC50,PI3K γ; read-out: PI3K γ IC50,< 10 µM
same,IC50,PI3K α; read-out: PI3K α IC50,< 10 µM
same,IC50,PI3K δ; read-out: PI3K δ IC50,> 10 µM
CC(C)(N)C(=O)N1CCN(c2ccc3ncc(-c4ccc5oc(N)nc5c4)cc3n2)CC1 [Compound 633],IC50,"PI3K α; read-out: PI3K α IC50, Table 4",< 10 µM
